The text below walks through data of patent US11066399B2, “Ferroportin inhibitors” (Vifor (International) AG, priority 2015, dated 2021).

One test deals with T1, ferroportin (Fpn) (Mus musculus, UniProt Q9JHI9).
T1 construct: host or cells: J774 mouse macrophage cell line, Fe(III)-NTA induced
T1 sequence (Q9JHI9 1-570): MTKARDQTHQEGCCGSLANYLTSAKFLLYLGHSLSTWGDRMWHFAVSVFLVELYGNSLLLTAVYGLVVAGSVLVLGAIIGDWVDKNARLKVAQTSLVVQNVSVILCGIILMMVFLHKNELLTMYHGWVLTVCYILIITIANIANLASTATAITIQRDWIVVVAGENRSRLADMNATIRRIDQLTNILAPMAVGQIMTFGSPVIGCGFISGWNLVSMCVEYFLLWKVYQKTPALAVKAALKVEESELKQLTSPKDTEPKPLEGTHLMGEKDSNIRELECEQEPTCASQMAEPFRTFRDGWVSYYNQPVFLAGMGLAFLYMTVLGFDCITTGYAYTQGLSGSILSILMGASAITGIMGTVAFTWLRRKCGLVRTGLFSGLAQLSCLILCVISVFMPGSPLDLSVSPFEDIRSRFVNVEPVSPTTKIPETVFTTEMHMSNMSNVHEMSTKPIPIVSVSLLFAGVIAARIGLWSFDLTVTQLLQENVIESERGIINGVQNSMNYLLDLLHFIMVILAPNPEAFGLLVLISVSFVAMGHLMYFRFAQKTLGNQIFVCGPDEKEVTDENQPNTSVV
Description: Hepcidin Internalization Assay (J774). In kind it is cell-based. The following applies: average (AVE) of multiple measurements; TMR-hepcidin 25 nM, J774 cells. The source says: This cellular assay allows quantification of the binding of hepcidin to ferroportin (Fpn) through microscopic detection of internalization of a fluorescently labeled hepcidin into J774 cells. […] Binding of hepcidin to Fpn triggers internalization and degradation of both hepcidin and Fpn. However, the TMR (6-carboxytetramethylrhodamine) fluorophore attached to hepcidin remains associated with the cell after degradation of the hepcidin peptide backbone. Therefore, microscopic detection of cell-associated TMR fluorescence is a measure of hepcidin binding to Fpn and internalization of hepcidin and Fpn. If TMR-hepcidin is prevented from binding to Fpn, cellular TMR fluorescence remains low (Dürrenberger et al, 2013). The effect of small molecular weight Fpn inhibitor compounds in this assay was evaluated in vitro as described below.
After overnight incubation, cells were washed 3 times with pre-warmed DMEM w/o phenol red, 30 μl/well of DMEM w/o phenol red was added after the final wash and 10 μl/well of dilution series of test compounds were added in triplicates. […] Cells were incubated in a total volume of 50 μl at 37° C. with 5% CO2 for 2 hours, then Hoechst 33342 dye was added to a final concentration of 0.5 μg/ml to stain nuclei and further incubated for 10 min. at 37° C. with 5% CO2. Cells were washed 3 times with PBS and fixed in 100 μl of 4% paraformaldehyde in PBS for 15 min. at room temperature. After removal of the paraformaldehyde solution, cells were washed 3 times with PBS leaving 100 μl per well and the plates were sealed with foil plate seal. TMR (530-550 nm excitation/575-625 nm emission/400 ms exposure time) and Hoechst 33342 (360-370 nm excitation/420-460 nm emission/10 ms exposure time) fluorescence images were acquired using a ScanR plate imager (Olympus) with a 20× high NA objective. Four pictures were acquired per well and fluorescence channel covering ca. 1500 cells per well. The acquired image data was analysed with the ScanR image analysis software. Image analysis included detection of nuclei (Hoechst 33342 fluorescence), identification of cell-associated regions, application of a virtual channel and thresholding for rolling-ball-type background reduction, followed by application of the Sum(Mean) algorithm to measure the TMR fluorescence associated with cells as a quantitative measure for internalized TMR-hepcidin. IC50 values were calculated with the Sum(Mean) raw data using “log(inhibitor) vs. response” curve fitting of Prism 5 software (GraphPad Software Inc., version 5.02).

The test system of another test is b2m−/− mice. Put plainly: Correction of hyperferremia in beta2-microglobulin deficient mice. In kind it is in vivo, mouse. The following applies: for effect on elevated serum iron: b2m−/− mice, 50 mg/kg p.o. for 3 h. As for the experimental part:
Female and male homozygous b2m−/− mice were supplied from Jackson Laboratories (B6.129P2-B2mtm1Unc/J, Stock Number: 002087) at age of 6 to 7 weeks and fed standard diet (Harlan Provimi Kliba 3436) ad libitum. Age and gender matched WT C57BL/6 mice are supplied by Charles River. To study the acute effects of ferroportin (Fpn) inhibitors in iron overload b2m−/− mice were treated with compounds or the corresponding amount of vehicle at a volume of 10 ml/kg body weight. Fpn inhibitor compounds were formulated in 0.5% methylcellulose/water or 20% cremophor EL/water and dosed p.o. in mice at 50 mg/kg body weight. WT controls received only vehicle. Three hours later, mice were pre-terminally anesthetized in isoflurane chambers and blood was collected by retro-orbital bleeding. Mice were sacrificed by cervical dislocation and spleens, livers and duodena were harvested and used for biomarker analysis. All experiments have been performed in compliance with license approved by the responsible veterinarian authorities. Serum was isolated by centrifugation of blood into gel-containing microtainers (BD Biosciences) and serum iron was determined by the MULTIGENT Iron assay (Abbott Diagnostics, Cat. 6K95). Four to nine mice per group were used and one-way ANOVA with Bonferroni's multiple comparison test was applied to analyze the statistical differences between the experimental groups.
Blood was collected 1 (#) or 3 (##) hours after oral administration of the indicated doses of Fpn inhibitors to beta2-microglobulin deficient mice and serum iron concentrations were measured. Relative reduction (%) of serum iron levels are shown, which were calculated by subtracting the average of serum iron values of animals dosed with the Fpn inhibitor from that of vehicle-treated animals. The difference in average serum iron values between vehicle and compound treated groups was then divided by the average of serum iron of the vehicle control group and listed as percentage.

The subject of the next test is Hbb th3/+ mice. Description: Improvement of anemia, ineffective erythropoiesis and iron overload in a mouse model of β-thalassemia intermedia. Particulars: % change to vehicle; for Decrease in serum iron: dosed for 3 h. It counts as in vivo. As for the experimental part: The efficacy of Fpn inhibitors was investigated using a mouse model of transfusion-independent β-thalassemia. Mice with heterozygous deletion of β1 and β2 globin genes (called Hbb th3/+ mice) develop transfusion-independent anemia, ineffective erythropoiesis, splenomegaly and secondary iron overload in spleen, liver and kidneys. […] Hbb th3/+ mice were dosed twice daily with either compound at 20 or 60 mg/kg or with methylcellulose (10 ml/kg, Sigma, Cat. 274429) as a vehicle. Between both doses mice had access to drinking water supplemented with 1 mM ^58Fe(II)-sulfate (Vifor Pharma, Batch No. ROR 3096) and 10 mM ascorbic acid (Sigma, Cat. 795437) for 6 h. […] Water without ^58Fe(II)-Sulfate and ascorbic acid was provided during the remaining 18 h. Dosing of Fpn inhibitors or vehicle followed by exposure to iron-containing water was repeated for 20 to 46 days in individual experiments.
Additional hematologic parameters were measured in terminal blood using automated blood cell analyzer.
The inefficient erythropoiesis of Hbb th3/+ mice causes excessive proliferation of erythroid precursors in spleen, leading to splenomegaly.
Erythroferrone is produced by erythrocyte precursors proliferating massively in spleens of Hbb th3/+ mice as a consequence of extramedullar erythropoiesis.
Increased iron demand due to inefficient erythropoiesis and chronically low hepcidin levels in patients with thalassemia causes organ iron loading and associated morbidities, such as hepatocellular carcinoma and heart failure (Rivella S. Haematologica, 2015). Hbb th3/+ mice absorb excessive amounts of iron as a consequence of inadequately low hepcidin levels relative to the high iron content in liver, spleen and kidney and increased ferroportin expression in duodenum (Gardenghi S., Blood, 2007).
Additionally, reactive oxygen species (ROS) were detected in bone marrow cells using a fluorescent indicator, CM-H2DCFDA (Thermo Fisher Scientific, Cat. C6827).
Table 10. Efficacy of Ferroportin inhibitors in a mouse model of thalassemia intermedia (Hbb th3/+ mice). […] Data are expressed as difference to the vehicle control group for hemoglobin and as % change to the vehicle control group for all other parameter shown

Where [1] appears, read: male b2m−/− mice, Dose 60 mg/kg oral, blood collected 3 (##) hours after dosing.
[2] abbreviates: 20 mg/kg twice daily for 20-46 days.
Where [3] appears, read: 60 mg/kg twice daily for 20-46 days.

By IC50 is commonly meant the point on the concentration scale where inhibition reaches its midpoint.

Marks after values point to notes of the source that are not given here.

`O=C(NCc1ncccc1F)c1cnc(C2CN(Cc3nc4ccccc4[nH]3)C2)o1` [Example 280] showed an IC50 at ferroportin (Fpn) of 50000 nM.

Take `O=C(NCc1ncccc1F)c1csc(CCNCCc2nc3ccccc3[nH]2)n1` [Example Compound No. 94, 2-(2-{[2-(1H-1,3-benzodiazol-2-yl)ethyl]amino}ethyl)-N-[(3-fluoropyridin-2-yl)methyl]-1,3-thiazole-4-carboxamide]: the “effect on elevated serum iron” value with b2m−/− mice is reported as “corrected the elevated serum iron to the levels observed in WT controls”.

As to `O=C(NCc1ncccc1F)c1cnc(CCNCCc2nc3ccccc3[nH]2)s1` [Example 8], at ferroportin (Fpn), 240 nM corresponded to half-maximal inhibition (IC50).

As to `O=C(NCc1ncccc1F)c1cnc(C2CN(CCc3nc4cc(F)ccc4[nH]3)C2)o1` [Example 5], half-maximal inhibition against ferroportin (Fpn) (IC50) required 63 nM. Against the preceding compound, the IC50 is about 3.8-fold lower.

`O=C(NCc1ncccc1F)c1noc(CCNCCc2nc3ccccc3[nH]2)n1` [Example 279] registered an IC50 at ferroportin (Fpn) of 2010 nM. Compared with the last compound, the IC50 is about 32-fold higher.

`O=C(NCc1ncccc1F)c1csc(CCN2CCn3c(nc4ccccc43)C2)n1` [Example 276] came in with an IC50 at ferroportin (Fpn) of 27200 nM.

As to `O=C(NCc1ncccc1F)c1coc(C2CN(CCc3nc4ccccc4[nH]3)C2)n1` [Example 208], the “Serum Iron Reduction (%)” value in the test with b2m−/− mice (female b2m−/− mice, Dose 20 mg/kg oral, blood collected 3 (##) hours after dosing) was 9%; in the test with b2m−/− mice (male b2m−/− mice, Dose 20 mg/kg oral, blood collected 3 (##) hours after dosing), 44%; with b2m−/− mice (setting [1]), 67** %.

Compound `O=C(NCc1ncccc1F)c1cnc(C2CN(CCc3nc4c(F)cccc4[nH]3)C2)o1` [Example 3] came in with an IC50 at ferroportin (Fpn) of 170 nM.

In the case of `O=C(NCc1ncccc1F)c1csc(CCNCCc2nc3ccccc3[nH]2)n1` [Example 94], the “Serum Iron Reduction (%)” value is listed as 47% in the test with b2m−/− mice (female b2m−/− mice, Dose 60 mg/kg oral, blood collected 3 (##) hours after dosing) and 67% with b2m−/− mice (setting [1]).

For `O=C(NCc1ncccc1F)c1csc(CCNCc2nc3ccccc3[nH]2)n1` [Example Compound No. 40, 2-{2-[(1H-1,3-benzodiazol-2-ylmethyl)amino]ethyl}-N-[(3-fluoropyridin-2-yl)methyl]-1,3-thiazole-4-carboxamide], the “effect on elevated serum iron” value in the test with b2m−/− mice is listed as “corrected the elevated serum iron to the levels observed in WT controls”.

As for `O=C(NCc1ncccc1F)c1coc(CCNCCc2nc3ccccc3[nH]2)n1` [Example 127], the “Serum Iron Reduction (%)” value in the test on b2m−/− mice (female b2m−/− mice, Dose 20 mg/kg oral, sampling time not marked) is on record as 47*** %. The “Serum Iron Reduction (%)” value in the test on b2m−/− mice (female b2m−/− mice, Dose 60 mg/kg oral, sampling time not marked) is 74*** %. In addition, the “Serum Iron Reduction (%)” value in the test with b2m−/− mice (male b2m−/− mice, Dose 60 mg/kg oral, sampling time not marked) is 83** %. Further, in the test with Hbb th3/+ mice (setting [2]), the “Decrease in 58Fe spleen iron content” value was determined as 43%, the “Decrease in RDW” value turned out to be 19%, the “Decrease in serum erythropoietin” value is 32% and the Increase in hematocrit worked out at 3%. Besides, in the test with Hbb th3/+ mice (setting [2]), the “Prevention of liver 58Fe loading” value came out at 39%. In addition, the “Decrease in serum iron” value in the test on Hbb th3/+ mice (20 mg/kg) is recorded as 68%. Further, in the test on Hbb th3/+ mice (setting [3]), the “Decrease in 58Fe spleen iron content” value is recorded as 68%, the “Decrease in RDW” value was determined as 25%, the “Decrease in serum erythropoietin” value was 33% and the Increase in hematocrit was found to be 20%. Besides, in the test with Hbb th3/+ mice (setting [3]), the “Prevention of liver 58Fe loading” value is on record as 59%. In the test on Hbb th3/+ mice (60 mg/kg), the “Decrease in serum iron” value was 81%.

For `Cc1nc(CCNCCc2nc3ccccc3[nH]2)sc1C(=O)NCc1ncccc1F` [Example 7], the 50% inhibitory concentration (IC50) at ferroportin (Fpn) was 400 nM.

Turning to `O=C(NCc1ncccc1F)c1csc(CCN2Cc3nc4ccccc4n3CC2=O)n1` [Example 275], the IC50 against ferroportin (Fpn) was determined as 26000 nM.

`O=C(NCc1ncccc1F)c1cnc(CCNCc2nc3ccccc3[nH]2)o1` [Example 4] returned an IC50 on ferroportin (Fpn) of 155 nM.

Take `O=C(NCc1ccccn1)c1noc(CCNCCc2nc3ccccc3[nH]2)n1` [Example 278]: at ferroportin (Fpn), the IC50 was 476 nM.
